The subject of one data set is Megascops sp. To be noted: oral.
In another data set the test system is Neovison sp. To be noted: repeat dose other; oral; Mink.

Drawing on EPA's ToxValDB 9.5, this text covers LOAEL and NOAEL for one molecule.

By LOAEL is commonly meant the lowest tested level that showed an adverse finding. Broadly, the NOAEL is the highest tested level that showed no adverse finding. In the data set on Megascops sp., `[F-].[Na+]` [Sodium fluoride] yielded an LOAEL of 32 mg/kg-day and an NOAEL of 7.8 mg/kg-day. In the data set on Neovison sp., this molecule showed an LOAEL of 52.8 mg/kg-day and an NOAEL of 31.4 mg/kg-day.
